Laboratory results as given in patent publication US9321718B2 (CHROMA THERAPEUTICS LTD., priority 2010, dated 2016).
pIC50: −log10 of the molar value.

These molecules were tested against T1, human recombinant his-tagged HSP90α (Homo sapiens, UniProt P07900) (assay: HSP90 enzyme assay (HTRF, competition with biotinylated Geldanamycin)). Conditions: IC50 range; read-out: Enzyme Assay.
T1 construct: purchased Prospec Technogene #HSP90
Format: binding
Source text: An HTRF (homogeneous time resolved fluorescence) assay is used to measure the interaction of the compounds with HSP90. The assay measures binding of biotinylated Geldanamycin (bio-GM; Biomol, #EI-341, lot: A9199a) to human recombinant his-tagged HSP90α (HSP90; Prospec Technogene, #HSP90, lot: 260HSP9001). A signal is generated by fluorescence resonance energy transfer from an Europium-cryptate labeled anti-his antibody (anti-his-K; Cisbio International, #61HISKLA, lot: 33V) via the HSP90-GM-biotin complex to a fluorescence acceptor (allophycocyanin) linked to streptavidin (SA-XL; Cisbio International, #610SAXLB, lot: 089).
Unlabeled GM or compounds compete with the bio-GM for binding to HSP90 resulting in reduced fluorescence energy transfer/assay signal.
A preformed (1 hour incubation) complex of HSP90 with the anti-his-K is added to the compound solution in a 384 well microplate (Corning, #3710) and incubated for 15 minutes. A preformed (1 hour incubation) complex of bio-GM with the SA-XL is added to the wells and incubated for 20 hours. All incubations are performed at room temperature. The final assay volume is 50 μl/well. The final concentrations in the assay are: 50 mM Hepes pH 7.3, 50 mM NaCl, 100 mM KF, 1 mM EDTA, 1 mM DTT, 0.1% Triton-X-100, […] HSP90, 40 nM SA-XL, 40 nM bio-GM. Test compounds are dissolved in DMSO, prediluted in assay buffer and tested at a final concentration between 5000 nM and 0.3 nM. The resulting DMSO concentration is 0.5% and included in all controls. High controls are without test compounds, low controls without test compounds, without HSP90 and without bio-GM. As a reference inhibitor unlabeled GM is used in the same concentrations as the test compounds.
Inhibition is calculated compared to the assay controls using an Excel spreadsheet (Microsoft). IC50 values are calculated by non-linear least squares fitting to the standard dose-response model using GraphPad Prism (GraphPad Software Inc).
Work on CC(C)c1cc(C(=O)N2CCC(N[C@H](C(=O)OC(C)(C)C)C3CCCCC3)CC2)c(O)cc1O [Example 15, tert-butyl (2S)-cyclohexyl[(1-{[2,4-dihydroxy-5-(propan-2-yl)phenyl]carbonyl}piperidin-4-yl)amino]ethanoate] yielded a pIC50 of 6.00 to 7.00.
CC(C)c1cc(C(=O)N2CCC(CN[C@H](C(=O)OC(C)(C)C)C3CCCCC3)CC2)c(O)cc1O [Example 31, tert-butyl (2S)-cyclohexyl{[(1-{[2,4-dihydroxy-5-(propan-2-yl)phenyl]carbonyl}piperidin-4-yl)methyl]amino}ethanoate] gave a pIC50 of 6.00 to 7.00.
In the case of CC(C)c1cc(C(=O)N2CCC(CCN[C@@H](Cc3ccccc3)C(=O)OC(C)(C)C)CC2)c(O)cc1O [Example 41, tert-butyl N-[2-(1-{[2,4-dihydroxy-5-(propan-2-yl)phenyl]carbonyl}piperidin-4-yl)ethyl]-L-phenylalaninate], the pIC50 was > 7.00.
For CC(C)c1cc(C(=O)N2CCC(CCN[C@@H](C)C(=O)OC(C)(C)C)CC2)c(O)cc1O [Example 43, tert-butyl N-[2-(1-{[2,4-dihydroxy-5-(propan-2-yl)phenyl]carbonyl}piperidin-4-yl)ethyl]-L-alaninate], the pIC50 was > 7.00.
With CC(C)c1cc(C(=O)N2CCC(CCN[C@H](C(=O)OC(C)(C)C)C3CCCCC3)CC2)c(O)cc1O [Example 49, tert-butyl (2S)-cyclohexyl{[2-(1-{[2,4-dihydroxy-5-(propan-2-yl)phenyl]carbonyl}piperidin-4-yl)ethyl]amino}ethanoate] the pIC50 was > 7.00.
CC(C)c1cc(C(=O)N2CCC(CCN[C@H](C(=O)OC(C)(C)C)c3ccccc3)CC2)c(O)cc1O [Example 50, tert-butyl (2S)-{[2-(1-{[2,4-dihydroxy-5-(propan-2-yl)phenyl]carbonyl}piperidin-4-yl)ethyl]amino}(phenyl)ethanoate] was tested, and the pIC50 was > 7.00.
For CC(C)c1cc(C(=O)N2CCC(CCN[C@@H](COC(C)(C)C)C(=O)OC(C)(C)C)CC2)c(O)cc1O [Example 53, tert-butyl O-tert-butyl-N-[2-(1-{[2,4-dihydroxy-5-(propan-2-yl)phenyl]carbonyl}piperidin-4-yl)ethyl]-L-serinate], the pIC50 was > 7.00.
In the case of CCOC(=O)[C@H](C)NCc1ccc2c(c1)CN(C(=O)c1cc(C(C)C)c(O)cc1O)C2 [Example 57, ethyl N-[(2-{[2,4-dihydroxy-5-(propan-2-yl)phenyl]carbonyl}-2,3-dihydro-1H-isoindol-5-yl)methyl]-L-alaninate], the pIC50 was > 7.00.
With CC(C)OC(=O)[C@H](C)NCc1ccc2c(c1)CN(C(=O)c1cc(C(C)C)c(O)cc1O)C2 [Example 58, propan-2-yl N-[(2-{[2,4-dihydroxy-5-(propan-2-yl)phenyl]carbonyl}-2,3-dihydro-1H-isoindol-5-yl)methyl]-L-alaninate] the pIC50 was > 7.00.
For CC(C)C[C@H](NCc1ccc(CN(C)C(=O)c2cc(C(C)C)c(O)cc2O)cc1)C(=O)O [Example 77, N-(4-{[{[2,4-dihydroxy-5-(propan-2-yl)phenyl]carbonyl}(methyl)amino]methyl}benzyl)-L-leucine], the pIC50 was > 7.00.
For CC(C)C[C@H](NCc1ccc2c(c1)CN(C(=O)c1cc(C(C)C)c(O)cc1O)C2)C(=O)O [Example 78, N-[(2-{[2,4-dihydroxy-5-(propan-2-yl)phenyl]carbonyl}-2,3-dihydro-1H-isoindol-5-yl)methyl]-L-leucine], the pIC50 was > 7.00.
For CC(C)c1cc(C(=O)N2Cc3ccc(CNC(C)(C)C(=O)O)cc3C2)c(O)cc1O [Example 79, N-[(2-{[2,4-dihydroxy-5-(propan-2-yl)phenyl]carbonyl}-2,3-dihydro-1H-isoindol-5-yl)methyl]-2-methylalanine], the pIC50 was > 7.00.
In the case of CC(C)C[C@H](NCCCc1ccc2c(c1)CN(C(=O)c1cc(C(C)C)c(O)cc1O)C2)C(=O)O [Example 80, N-[3-(2-{[2,4-dihydroxy-5-(propan-2-yl)phenyl]carbonyl}-2,3-dihydro-1H-isoindol-5-yl)propyl]-L-leucine], the pIC50 was > 7.00.
For CC(C)C[C@H](NCCc1ccc2c(c1)CN(C(=O)c1cc(C(C)C)c(O)cc1O)C2)C(=O)O [Example 81, N-[2-(2-{[2,4-dihydroxy-5-(propan-2-yl)phenyl]carbonyl}-2,3-dihydro-1H-isoindol-5-yl)ethyl]-L-leucine], the pIC50 was > 7.00.
In the case of CC(C)c1cc(C(=O)N2Cc3ccc(CN[C@@H](C)C(=O)O)cc3C2)c(O)cc1O [Example 82, N-[(2-{[2,4-dihydroxy-5-(propan-2-yl)phenyl]carbonyl}-2,3-dihydro-4H-isoindol-5-yl)methyl]-L-alanine], the pIC50 was > 7.00.
CC(C)c1cc(C(=O)N2Cc3ccc(CNC4(C(=O)O)CCCC4)cc3C2)c(O)cc1O [Example 83, 1-{[(2-{[2,4-dihydroxy-5-(propan-2-yl)phenyl]carbonyl}-2,3-dihydro-1H-isoindol-5-yl)methyl]amino}cyclopentanecarboxylic acid] was tested, and the pIC50 was > 7.00.
With CC(C)C[C@H](NCc1cccc(CN(C)C(=O)c2cc(C(C)C)c(O)cc2O)c1)C(=O)O [Example 84, N-(3-{[{[2,4-dihydroxy-5-(propan-2-yl)phenyl]carbonyl}(methyl)amino]methyl}benzyl)-L-leucine] the pIC50 was > 7.00.
With CC(C)c1cc(C(=O)N(C)Cc2ccc(CN[C@H](C(=O)O)c3ccccc3)cc2)c(O)cc1O [Example 85, (2S)-[(4-{[{[2,4-dihydroxy-5-(propan-2-yl)phenyl]carbonyl}(methyl)amino]methyl}benzyl)amino](phenyl)ethanoic acid] the pIC50 was > 7.00.
With CC(C)c1cc(C(=O)N(C)Cc2ccc(CNC(C)(C)C(=O)O)cc2)c(O)cc1O [Example 86, N-(4-{[{[2,4-dihydroxy-5-(propan-2-yl)phenyl]carbonyl}(methyl)amino]methyl}benzyl)-2-methylalanine] the pIC50 was > 7.00.
For CC(C)c1cc(C(=O)N(C)Cc2cccc(CNC(C)(C)C(=O)O)c2)c(O)cc1O [Example 87, N-(3-{[{[2,4-dihydroxy-5-(propan-2-yl)phenyl]carbonyl}(methyl)amino]methyl}benzyl)-2-methylalanine], the pIC50 was > 7.00.
In the case of CC(C)c1cc(C(=O)N(C)Cc2cccc(CNC3(C(=O)O)CCCC3)c2)c(O)cc1O [Example 88, 1-[(3-{[{[2,4-dihydroxy-5-(propan-2-yl)phenyl]carbonyl}(methyl)amino]methyl}benzyl)amino]cyclopentanecarboxylic acid], the pIC50 was > 7.00.
CC(C)c1cc(C(=O)N(C)Cc2cccc(CN[C@H](C(=O)O)c3ccccc3)c2)c(O)cc1O [Example 89, (2S)-[(3-{[{[2,4-dihydroxy-5-(propan-2-yl)phenyl]carbonyl}(methyl)amino]methyl}benzyl)amino](phenyl)ethanoic acid] was tested, and the pIC50 was > 7.00.
In the case of CC(C)c1cc(C(=O)N2Cc3ccc(CCCNC4(C(=O)O)CCCC4)cc3C2)c(O)cc1O [Example 90, 1-{[3-(2-{[2,4-dihydroxy-5-(propan-2-yl)phenyl]carbonyl}-2,3-dihydro-1H-isoindol-5-yl)propyl]amino}cyclopentanecarboxylic acid], the pIC50 was > 7.00.
CC(C)c1cc(C(=O)N(C)Cc2ccc(CCNC(C)(C)C(=O)O)cc2)c(O)cc1O [Example 91, N-[2-(4-{[{[2,4-dihydroxy-5-(propan-2-yl)phenyl]carbonyl}(methyl)amino]methyl}phenyl)ethyl]-2-methylalanine] was tested, and the pIC50 was > 7.00.
With CC(C)c1cc(C(=O)N2CCC(CCN[C@@H](C)C(=O)O)CC2)c(O)cc1O [Example 92, N-[2-(1-{[2,4-dihydroxy-5-(propan-2-yl)phenyl]carbonyl}piperidin-4-yl)ethyl]-L-alanine] the pIC50 was > 7.00.
For CC(C)c1cc(C(=O)N2Cc3ccc(CCNC4(C(=O)O)CCCC4)cc3C2)c(O)cc1O [Example 93, 1-{[2-(2-{[2,4-dihydroxy-5-(propan-2-yl)phenyl]carbonyl}-2,3-dihydro-1H-isoindol-5-yl)ethyl]amino}cyclopentanecarboxylic acid], the pIC50 was > 7.00.
CC(C)C[C@H](NC[C@@H]1CCCN1C(=O)c1cc(C(C)C)c(O)cc1O)C(=O)O [Example 94, N-{[(2S)-1-{[2,4-dihydroxy-5-(propan-2-yl)phenyl]carbonyl}pyrrolidin-2-yl]methyl}-L-leucine] gave a pIC50 of 6.00 to 7.00.
For CC(C)C[C@H](NC1CCN(C(=O)c2cc(C(C)C)c(O)cc2O)C1)C(=O)O (stereo partly drawn) [Example 95, N-(1-{[2,4-dihydroxy-5-(propan-2-yl)phenyl]carbonyl}pyrrolidin-3-yl)-L-leucine], the pIC50 was > 7.00.
In the case of CC(C)C[C@H](NC1CCN(C(=O)c2cc(C(C)C)c(O)cc2O)CC1)C(=O)O [Example 96, N-(1-{[2,4-dihydroxy-5-(propan-2-yl)phenyl]carbonyl}piperidin-4-yl)-L-leucine], the pIC50 was > 7.00.
CC(C)c1cc(C(=O)N2CCC(NC(C)(C)C(=O)O)CC2)c(O)cc1O [Example 97, N-(1-{[2,4-dihydroxy-5-(propan-2-yl)phenyl]carbonyl}piperidin-4-yl)-2-methylalanine] was tested, and the pIC50 was > 7.00.
